These results are taken from BindingDB's records for doi:10.1021/acsmedchemlett.9b00615 (University of Manchester, 2020).

The nature of assay [1]: Inhibition of RET (unknown origin) expressed in […] cells assessed as reduction in cell viability incubated for 48 hrs by celltiter glo luminescence cell viability assay.
Assay [2] can be described thus: Inhibition of KDR (unknown origin) expressed in […] cells assessed as reduction in cell viability incubated for 48 hrs by celltiter glo luminescence cell viability assay. In general terms: Cellular ATP, detected with luciferase, serves as a proxy for viable cell number.

Take `CN(C)CCCNc1ccn2ncc(-c3ccc4c(c3)OCO4)c2n1`: the IC50 in assay [1] worked out at 4 µM; in assay [2], 9 µM.

Broadly, the IC50 is the concentration needed to halve the response being measured.
